One test concerns α1β1γ2 GABA-A receptor. The settings on record: agonist; nH 1.3.
Another test has as its target human GAD67 (hGAD67) (Homo sapiens, UniProt Q99259). The experiment in a line: biochemical.
In a further test the test system is α5β1γ2 GABA-A receptor. Particulars: agonist; +50 mV; nH 1.8.

human GAD67 (hGAD67), sequence (Q99259 whole entry): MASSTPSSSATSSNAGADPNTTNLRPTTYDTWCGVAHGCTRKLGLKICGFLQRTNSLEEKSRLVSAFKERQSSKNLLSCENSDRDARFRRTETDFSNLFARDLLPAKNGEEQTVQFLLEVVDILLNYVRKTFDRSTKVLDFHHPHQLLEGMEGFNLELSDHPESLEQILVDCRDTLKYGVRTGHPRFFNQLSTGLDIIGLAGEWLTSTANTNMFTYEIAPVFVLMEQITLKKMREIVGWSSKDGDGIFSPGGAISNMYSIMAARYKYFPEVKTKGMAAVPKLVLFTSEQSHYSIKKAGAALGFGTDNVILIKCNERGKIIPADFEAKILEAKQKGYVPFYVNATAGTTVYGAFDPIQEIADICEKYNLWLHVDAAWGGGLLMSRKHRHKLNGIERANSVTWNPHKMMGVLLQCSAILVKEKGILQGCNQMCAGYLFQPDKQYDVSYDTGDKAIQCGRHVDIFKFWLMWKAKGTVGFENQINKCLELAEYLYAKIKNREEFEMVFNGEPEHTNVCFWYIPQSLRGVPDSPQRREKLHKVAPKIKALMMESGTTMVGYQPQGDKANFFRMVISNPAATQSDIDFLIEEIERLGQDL

What is called EC50 is the concentration needed to bring the measured effect to its halfway point. High values mean a need for much substance, low ones an effect from little substance. In general, Ki refers to the dissociation constant of the complex between target and ligand, obtained from inhibition or displacement. The low end stands for higher affinity, the high end for lower affinity. For `O=C(O)[C@@H]1CCCN1` [L-proline], the 50% effective concentration (EC50) came to 8.3 mM in the test on α1β1γ2 GABA-A receptor and 5.4 mM in the test with α5β1γ2 GABA-A receptor. At human GAD67 (hGAD67), this compound had an inhibition constant (Ki) of 7.8 mM.

(Values after article PMC5104186 (Cell reports, 2016).)
